Experimental data from patent US9296760B2, “Antibacterial compounds” (JANSSEN SCIENCES IRELAND UC, priority 2012, dated 2016).
Values after ≈ are worked out from the molar mass of the structure shown.

Columns and labels:
[1] = target: T1, S. aureus ATCC 29213 FabI (Staphylococcus aureus, UniProt Q6GI75); assay: Staphylococcus aureus FabI enzyme inhibition assay; assay type: biochemical; conditions: NADH consumption, 30 minutes, read-out: FabI (300.235) IC50 (converted)
T1 sequence (Q6GI75 1-256): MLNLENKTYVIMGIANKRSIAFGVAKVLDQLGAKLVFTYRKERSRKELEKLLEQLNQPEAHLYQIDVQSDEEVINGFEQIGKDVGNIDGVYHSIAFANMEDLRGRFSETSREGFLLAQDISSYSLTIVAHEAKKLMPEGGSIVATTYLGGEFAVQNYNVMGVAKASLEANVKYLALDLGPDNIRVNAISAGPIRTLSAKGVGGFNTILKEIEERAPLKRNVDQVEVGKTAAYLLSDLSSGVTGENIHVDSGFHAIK
Method: Y.1 FabI Enzyme Inhibition: Staphylococcus aureus FabI Enzyme Inhibition Assay
FabI enzyme inhibition assays were carried out in half-area, 384-well microtitre plates. […] The reaction mixtures were incubated for 30 minutes at room temperature and the reaction was stopped by adding 200 mM Tris buffer (pH 9.0) to create a pH-shift. The consumption of NADH was monitored by measuring the change in absorbance at […]. By comparing sample readings to those of negative (absence of compound) and positive (absence of enzyme) controls, the percent inhibition of enzymatic activity of the compounds was determined A best-fit curve is fitted by a minimum of squares method. From this an IC50-value (expressed in μg/ml), resulting in 50% inhibition of enzymatic activity, was obtained.

[2] = system: Staphylococcus aureus ATCC 29213; assay: Antibacterial susceptibility testing, IC90 determination (broth microdilution, resazurin); assay type: cell-based; conditions: Staphylococcus aureus, ATCC29213, S. aureus ATCC 29213; 90% inhibitory concentration for bacterial growth; read-out: STA (361.159) IC90
Method: Y.2 In Vitro Method for Testing Compounds for Antibacterial Activity Against Various Bacterial Strains
Preparation of Bacterial Suspensions for Susceptibility Testing
The following bacteria were used: Staphylococcus aureus ATCC 29213, methicillin-resistant Staphylococcus aureus (MRSA) ATCC 700788 and Escherichia coli ATCC 35218. The bacteria used in this study were grown overnight in flasks containing 100 ml Mueller-Hinton broth (Difco cat. nr. 0757-17) in sterile de-ionized water, with shaking, at 37° C. Stocks were store at −70° C. until use.
Bacteria were incubated on a tryptic soy agar plate containing 5% sheep blood (Becton Dickinson cat. nr. 254053) for 18-24 hours at 35° C. in aerobic conditions (first passage). For the second passage, fresh Mueller-Hinton broth is inoculated with 5-10 colonies and grown overnight at 35° C. until turbidity (reaching log-phase) in aerobic conditions is reached. The bacterial suspension is then adjusted to 0.5 McFarland density and further diluted 1:100 in Mueller Hinton broth medium. This is used as inoculum.
The result(s) are depicted the table below (for STA ATCC 29213).
Antibacterial Susceptibility Testing: IC90 Determination
(§1) MIC assays were performed by the broth microdilution method in a 96-well format (flat-bottom microtitre plates) with a final volume of 0.1 ml Mueller Hinton broth containing two-fold serial dilutions of compounds and inoculated with 5×10^5 CFU/ml of bacteria (standard inoculum size according to CLSI guidelines). Inhibitors are typically varied over the range of 63 to 0.49 μM. The final DMSO concentration in the assay was 1.25% (maximum tolerable DMSO concentration=6%). In the assays where the effect of human serum on the activity of the compounds against S. aureus was tested, human serum was added at a final concentration of 10%. The plates were incubated at 35° C. for 16-20 hours. At the end of incubation the bacterial growth was quantified fluorometrically. For this, resazurin was added to all wells and the plates were re-incubated. The incubation time is dependent on the type of bacteria. A change in color from blue to pink indicated the growth of bacteria. The fluorescence was read in computer-controlled fluorometer (Fluoroskan Ascent FL, Labsystems) at an excitation wavelength 540 nm and an emission wavelength of 590 nm. The % growth inhibition achieved by the compounds was calculated according to standard methods. The IC90 (expressed in μg/ml) was defined as the 90% inhibitory concentration for bacterial growth. A panel of reference compounds were simultaneously tested for QC approval.

S. aureus = assay: Antibacterial susceptibility testing, IC90 determination with 10% human serum; assay type: cell-based, Staphylococcus aureus; conditions: Staphylococcus aureus, S. aureus with human serum at final concentration of 10%; read-out: STA + 10% HS (361.169) IC90
Method: as §1, with “Antibacterial Susceptibility Testing: IC90 Determination MIC” for “MIC”, “approval. The results are depicted in the table(s) below (STA+10% HS).” for “approval.”

Cytotoxicity MTT assay = assay type: cell-based, Human; conditions: human, HelaM cells, read-out: HELAM (222.125) CC50
Method: Cytotoxicity of the compounds was evaluated using the MTT assay. Human HelaM cells grown in 96-well plates were exposed to serial dilutions of the tested compounds (final volume of 0.2 ml) and incubated for 72 hours at 37° C. and 5% CO2 Inhibitors are typically varied over the range of 25 to 0.8 μM. The final DMSO concentration in the assay is 0.5%. MTT (3-(4,5-Dimethylthiazol-2-yl)-2,5-diphenyltetrazolium bromide, a tetrazole) was added and reduced to purple formazan only in living cells. Solubilization of the formazan crystals was achieved by adding 100 μl 2-propanol. Cell viability was determined by measuring the absorbance of the reduced formazan, giving a purple color, at 540 nm and 690 nm. The absorbance measured at 690 nm was automatically subtracted from the absorbance at 540 nm, to eliminate the effects of non-specific absorption. The percent cytotoxicity achieved by the compounds was calculated according to standard methods. Cytotoxicity is reported as CC50, the concentration that causes a 50% reduction in cell viability.
The results are depicted in the table(s) below (HELAM).

Row | IC50 [1] [nM] | IC90 [2] [µg/mL] | IC90 (S. aureus) [µg/mL] | melting point [°C] | Compound | CC50 at 72 h (Cytotoxicity MTT assay) [µg/mL]
1 | 2620 | 1.13 (≈ 2.77 µM) | 1.32 | 212 to 213 | CN1CC(=O)Nc2ncc(/C=C/C(=O)N3CC=C(c4cccs4)CCC3)cc2C1 [compound 43] | > 10.3
2 | 3880 | 6.75 (≈ 21.1 µM) | 12.9 | 184 | Nc1ccc(/C=C/C(=O)N2CC=C(c3ccccc3)CCC2)cn1 [compound 21] | 4.78 (≈ 15 µM)
3 | 901 | 0.37 (≈ 0.952 µM) | 0.38 | 203.18 | O=C1CNCc2cc(/C=C/C(=O)N3CCC=C(c4ccccc4)CC3)cnc2N1 [compound 34] | > 9.76
4 | 562 | < 0.22 | 0.53 | 227.76 | O=C1Nc2ncc(/C=C/C(=O)N3CCC=C(c4ccccc4)CC3)cc2CN2CCOCC12 (stereo not shown) [compound 46] | > 11.2
5 | 783 | 0.25 (≈ 0.515 µM) | 0.44 | 208 | CC(=O)N1CCN2Cc3cc(/C=C/C(=O)N4CCC=C(c5ccccc5)CC4)cnc3NC(=O)C2C1 (stereo not shown) [compound 47] | 17.6 (≈ 36.3 µM)
6 | 1110 | 0.39 (≈ 0.847 µM) | 1.23 | 224.06 | O=C1Nc2ncc(/C=C/C(=O)N3CCC=C(c4ccccc4)CC3)cc2CN2CCSCC12 (stereo not shown) [compound 49] | 4.88 (≈ 10.6 µM)
7 | 986 | 0.6 (≈ 1.6 µM) | 0.67 | 244.33 | O=C1Nc2ncc(/C=C/C(=O)N3CCC=C(c4ccccc4)CC3)cc2CO1 [compound 41] | > 9.43
8 | 21400 | 6.56 (≈ 14.8 µM) | 4.75 | 206 | O=C1Nc2ncc(/C=C/C(=O)N3CCC=C(c4ccccc4)CC3)cc2CN2CCNCC12 (stereo not shown) [compound 52] | > 11.1
9 | 1250 | 0.32 (≈ 0.783 µM) | 0.26 | 125 to 126 | CN1CC(=O)Nc2ncc(/C=C/C(=O)N3CCC=C(c4cccs4)CC3)cc2C1 [compound 33] | > 10.3
10 | 697 | 0.64 (≈ 1.44 µM) | 1.58 | 220 | O=C1Nc2ncc(/C=C/C(=O)N3CC=C(c4ccccc4)CCC3)cc2CN2CCOCC12 (stereo not shown) [compound 50] | 22 (≈ 49.5 µM)
11 | 1080 | 11.6 (≈ 27.9 µM) | 12.1 | 159 | O=C(/C=C/c1ccc(NC(=O)C(F)(F)F)nc1)N1CCC=C(c2ccccc2)CC1 [compound 22] | 8.01 (≈ 19.3 µM)

The next lines start with the compound.

Row | Compound | IC50 [1] [nM] | IC90 [2] [µg/mL] | IC90 (S. aureus) [µg/mL] | melting point [°C] | CC50 at 72 h (Cytotoxicity MTT assay) [µg/mL]
12 | O=C(Nc1ccc(/C=C/C(=O)N2CCC=C(c3ccccc3)CC2)cn1)c1ccncc1 [compound 13] | 1250 | 1.41 (≈ 3.32 µM) | 3.08 | 98 | 4.29 (≈ 10.1 µM)
13 | O=C(Nc1ccc(/C=C/C(=O)N2CCC=C(c3ccccc3)CC2)cn1)c1ccoc1 [compound 2] | 1190 | 0.44 (≈ 1.06 µM) | 1.43 | 156 | > 10.4
14 | O=C(Nc1ccc(/C=C/C(=O)N2CCC=C(c3ccccc3)CC2)cn1)c1ccccc1 [compound 9] | 1820 | 0.85 (≈ 2.01 µM) | 6.26 | 158.31 | 4.24 (≈ 10 µM)
15 | O=C(Nc1ccc(/C=C/C(=O)N2CCC=C(c3ccccc3)CC2)cn1)c1cccnc1 [compound 1] | 730 | 0.4 (≈ 0.942 µM) | 0.84 | 186 | 0.43 (≈ 1.01 µM)
16 | Cc1cc(C(=O)Nc2ccc(/C=C/C(=O)N3CCC=C(c4ccccc4)CC3)cn2)no1 [compound 16] | 1540 | 3.29 (≈ 7.68 µM) | 6.71 | 169.37 | 7.89 (≈ 18.4 µM)
17 | O=C(Nc1ccc(/C=C/C(=O)N2CCC=C(c3ccccc3)CC2)cn1)C1CCCC1 [compound 18] | 2050 | 6.29 (≈ 15.1 µM) | > 26.2 | 141 | 2.62 (≈ 6.31 µM)
18 | COc1ccc(F)cc1C1=CCCN(C(=O)/C=C/c2ccc(NC(=O)c3cccnc3)nc2)CC1 [compound 3] | 1630 | 0.45 (≈ 0.952 µM) | 1.68 | 122 | 1.13 (≈ 2.39 µM)
19 | O=C(Nc1ccc(/C=C/C(=O)N2CCC=C(c3ccccc3)CC2)cn1)c1c[nH]cn1 [compound 11] | 1620 | 1.26 (≈ 3.05 µM) | 3.17 | 120 | > 10.4
20 | CC(=O)Nc1ccc(/C=C/C(=O)N2CC=C(c3ccccc3)CCC2)cn1 [compound 12] | 609 | 1.3 (≈ 3.6 µM) | 1.9 | 188 | > 9.08
21 | O=C(/C=C/c1ccc(Nc2ccccc2)nc1)N1CCC=C(c2ccccc2)CC1 [compound 14] | 2250 | 1.45 (≈ 3.67 µM) | 24.1 | 150 | 6.27 (≈ 15.9 µM)
22 | O=C(Nc1ccc(/C=C/C(=O)N2CCC=C(c3ccccc3)CC2)cn1)C1CCOC1 (stereo not shown) [compound 20] | 934 | 6.69 (≈ 16 µM) | 11.8 | 152 | 10 (≈ 24 µM)
23 | CC(=O)Nc1ccc(/C=C/C(=O)N2CCC=C(c3ccccc3)CC2)cn1 [compound 6] | ~802 | 0.69 (≈ 1.91 µM) | 1.9 | 152 | > 9.08
